Assays:
[1] = system: rheumatoid arthritis-derived synovial cells (mesenchymal cells); conditions: cited from earlier work
C57BL/6J mice = test: Medial meniscus anterior 1/2 resection model; assay type: in vivo, mouse
Excerpt: Twenty male C57BL/6J mice (8 weeks old, weight: about 25 g) were used for this study (5 mice in each group. ORIENTAL YEAST Co., Ltd. Tokyo, Japan). After anesthesia by isoflurane inhalation, a straight incision was made in the left anterior knee, and the anterior central side of the joint capsule was cut. The patellar tendon was then dislocated laterally to expose the anterior corner of the medial meniscus (see Hiyama K. et al, J Orthop Res., 2017, 35(9), pp. 1958 to 1965). The anterior corner of the meniscus was cut and dislocated anteriorly using forceps. The medial meniscus was cut perpendicularly at the medial collateral ligament, and the anterior portion of the medial meniscus was resected in a microscopic operation using a surgical microscope. The skin was closed in layers with non-absorbable sutures. Note that the right knee was subjected to sham surgery. In addition, the mice were kept under a 12-hour light/dark cycle with free movement, free feeding, and drinking water.
Recombinant human Activin A (42 ng/6 μL in PBS) and/or rh PDGF-AA (174 ng/6 μL in PBS) was injected intra-articularly on postoperative day 7 (see Hoshino T. et al., BMC Musculoskelet Disord., 2018, 19(1): 291). […]
Tissue samples were fixed in 4% paraformaldehyde for 3 to 4 days and subjected to decalcification in 20% ethylenediaminetetraacetic acid (EDTA) solution for 21 days. Then, they were embedded in paraffin wax. The specimens were then cut to a 5 μm thickness in the sagittal plane and stained with safranin O/Fast Green or hematoxylin/eosin (H&E) to histologically evaluate meniscus regeneration.
A modified Pauli's score system was used to histologically quantify meniscus regeneration (see Hiyama K. et al, J Orthop Res. 2017, 35(9), pp. 1958 to 1965). Histological evaluation was performed by two investigators in a blind manner.
Type I and II collagen immunostaining was performed as described in Tsuji K. et al, Cell Transplant., 2017, 26(6), pp. 1089 to 1102. That is, sections were subjected to deparaffinization with xylene (Wako Pure Chemical Industries, Tokyo, Japan), rehydrated stepwise with alcohol, and saturated with phosphate buffered saline (PBS). For type II collagen staining, the samples were pretreated with 50 mM Tris-HCl buffer (Wako Pure Chemical Industries) containing 0.4 mg/ml Proteinase K (Dako, Agilent Technologies, Santa Clara, Calif., USA) for 10 min. For type I collagen staining, no digestion with Proteinase K was performed.
Next, the cells were treated with methanol containing 0.3% hydrogen peroxide for 30 minutes to suppress the activity of endogenous peroxidase. As primary antibodies, anti-type I collagen antibody (1:200 dilution; Abcam cat. #ab34712, Cambridge, UK) or anti-type II collagen antibody (1:1000 dilution; Abcam […], Cambridge, UK) were added to the sections and incubated at 4° C. overnight. Then, the sections were rinsed with 0.1% PBS-Triton X-100 (MP Biomedicals Inc., Solon, Ohio, USA) and incubated with secondary antibodies diluted 1:200 [Biotinylated goat-derived anti-rabbit immunoglobulin G (IgG), Vector Laboratories, Burlingame, Calif., USA]. Then, the sections were rinsed, the signals were visualized with Vectastain ABC Reagent (Vector Laboratories), and diaminobenzidine staining (DAB, Vector Laboratories) was applied. In addition, the sections were contrast stained with hematoxylin (Muto Pure Chemicals, Tokyo, Japan).

synovial MSCs = test: In-vitro differentiation assay of MSCs (cartilage, bone, adipocytes); assay type: cell-based, human
Description: In-vitro differentiation assays were performed according to the method described in Colter D C. et al, Proc Natl Acad Sci USA, 2001, 98, pp. 7841 to 7845.
To form chondrogenic spheroids, 2.5×10^5 cells were transferred into 15 mL polypropylene tubes (BD Biosciences) and subjected to centrifugation at 450×g for 10 minutes. Then, the cell pellets were cultured in chondrogenic medium containing 1000 ng/mL rhBMP-2 (Infuse Bone Graft; Medtronic, TN, USA), 10 ng/mL […], and 100 nM dexamethasone (Sigma-Aldrich, MO, USA) for 14 days.
For calcification, cells were cultured in normal growth medium supplemented with 1 nM dexamethasone, 20 mM β-glycerophosphate, and 50 μg/mL ascorbic acid-2-phosphate (Sigma-Aldrich) for 21 days. Calcified nodule formation was visualized by alizarin red staining (Sigma-Aldrich).
For adipogenesis, the cells were cultured for 21 days in MEM-alpha supplemented with 10% FBS, 100 nM dexamethasone (Sigma-Aldrich), 0.5 mM IBMX (isobutyl-1-methylxanthine; Sigma-Aldrich), and 50 μM indomethacin (Wako, Tokyo, Japan). The adipogenic cultures were immobilized and stained with Oil Red O solution (Sigma-Aldrich).

## Activin A: homodimer of two inhibin βA chains; recombinant human protein purchased from R&D Systems
[1]
  proliferation of rheumatoid arthritis-derived synovial cells: promotes the proliferation
C57BL/6J mice; 42 ng/knee intra-articular on day 7, 10 days after resection, FIG. 7A
  regenerated meniscus tissue (histology): more uniform regenerated meniscus tissue, was induced
C57BL/6J mice; 10 days after resection, vs control and PDGF groups, FIG. 7A
  staining property of safranin O (proteoglycans): enhanced
C57BL/6J mice; 21 days after resection (day 14 after administration), FIG. 7B
  regenerated meniscus tissue (histology): uniform regeneration of cartilage-like tissue was observed
C57BL/6J mice; 21 days after resection, FIG. 7B
  expression of type II collagen: Uniform expression
C57BL/6J mice; 56 days after resection (day 49 after administration), FIG. 7C
  regenerated meniscus tissue (histology): formation of bone marrow-like tissue
C57BL/6J mice; 84 days after resection (day 77 after administration), FIG. 7D
  regenerated meniscus tissue (histology): regenerated tissue image very close to that of a normal meniscus
C57BL/6J mice; day 10, 21, 56 and 84 after meniscectomy, FIG. 7E
  meniscus regeneration process, modified Pauli's score: significantly accelerated
C57BL/6J mice; intra-articular on day 7, 10 days after resection, FIG. 7A
  vascular invasion in the regenerated region: almost completely suppressed
C57BL/6J mice; regenerated tissues administered with activin
  osteoinduction in regenerated tissues: no osteoinduction was observed
Synovial MSCs; added to chondrogenic differentiation medium, pellet culture 2 weeks, FIG. 6C
  production of cartilage matrix: no significant promotive effect
Synovial MSCs; after 2 weeks of culture in the presence of Activin A, vs control, FIG. 6B
  differentiation induction toward chondrocytic, osteoblastic and adipocytic cells: no significant changes

Source: patent US20220160779A1, “COMPOSITION FOR PROMOTING CARTILAGE TISSUE REGENERATION” (National University Corporation Tokyo Medical and Dental …, priority 2019, published 2022)
